Experimental findings from patent publication US11090304B2 (Amgen Inc., priority 2018, dated 2021) are described below.

Usually IC50 stands for the concentration that inhibits the measured activity by half.

Test [1] addresses GDP-bound KRAS protein (aa 1-169), containing both G12C and C118A amino acid substitutions (Homo sapiens, UniProt P01116, C118A/G12C). Description: Coupled nucleotide exchange assay (SOS-mediated, AlphaScreen). The format is biochemical. The settings on record: 5 min compound pre-incubation; for IC50: read-out: Coupled exchange IC50 (5 min). (In general: Bead proximity is the source of the signal in Alpha formats.)

Test [2] has as its system Phosphorylation of ERK1/2 in MIA PaCa-2 cells. The experiment in a line: Phospho-ERK1/2 MSD assay in MIA PaCa-2 cells. The format is cell-based. The settings on record: read-out: p-ERK IC50 (2 h; MIA PaCa-2), 2 h compound treatment. The procedure, abridged: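 Following a 2 or 4 h incubation with titrated compound, cells receive a 10 min pulse of 10 ng/mL EGF. Phospho-ERK1/2 in RIPA lysates is then quantified by MSD immunoassay, and IC50 values come from a four-parameter logistic model.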

Read-outs that look alike come from different tables or passages of the source.

Sequence of GDP-bound KRAS protein (aa 1-169), containing both G12C and C118A amino acid substitutions (P01116 1-169 isoform P01116-2 G12C/C118A): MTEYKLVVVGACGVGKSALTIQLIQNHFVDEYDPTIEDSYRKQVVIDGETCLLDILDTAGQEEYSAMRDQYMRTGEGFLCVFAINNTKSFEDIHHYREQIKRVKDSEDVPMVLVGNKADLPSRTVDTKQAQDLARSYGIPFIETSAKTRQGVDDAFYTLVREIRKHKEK

Consider `C=CC(=O)N1CCN(c2nc(=O)n(-c3scnc3CC)c3nc(-c4c(O)cccc4F)c(Cl)cc23)[C@@H](C)C1` [Example 60-22, 6-chloro-1-(4-ethyl-1,3-thiazol-5-yl)-7-(2-fluoro-6-hydroxyphenyl)-4-((2S)-2-methyl-4-(2-propenoyl)-1-piperazinyl)pyrido[2,3-d]pyrimidin-2(1H)-one], for which, in test [1], the “Coupled exchange IC50 (5 min)” value is given as 0.159 | nda μM. Further, in test [2] (Homo sapiens, MIA PaCa-2, 2 h), the IC50 came out at 433 nM.
Regarding `C=CC(=O)N1CCN(c2nc(=O)n(-c3ncccc3C(C)C)c3nc(-c4ccccc4F)c(Cl)cc23)[C@@H](C)C1` [Example 60-28, 6-chloro-7-(2-fluorophenyl)-4-((2S)-2-methyl-4-(2-propenoyl)-1-piperazinyl)-1-(3-(2-propanyl)-2-pyridinyl)pyrido[2,3-d]pyrimidin-2(1H)-one], the “Coupled exchange IC50 (5 min)” value in test [1] is 0.101 | nda μM. In test [2] (Homo sapiens, MIA PaCa-2, 2 h), the IC50 is 45 nM.
Regarding `C=CC(=O)N1CCN(c2nc(=O)n(-c3c(C4CC4)ncnc3C3CC3)c3nc(-c4c(O)cccc4F)c(Cl)cc23)[C@@H](C)C1` [Example 60-29, 6-chloro-1-(4,6-dicyclopropyl-5-pyrimidinyl)-7-(2-fluoro-6-hydroxyphenyl)-4-((2S)-2-methyl-4-(2-propenoyl)-1-piperazinyl)pyrido[2,3-d]pyrimidin-2(1H)-one], the IC50 in test [1] amounted to 34 nM; in test [2] (Homo sapiens), 36 nM.
For the molecule `C=CC(=O)N1CCN(c2nc(=O)n(-c3c(C)ncnc3C3CC3)c3nc(-c4ccccc4F)c(Cl)cc23)[C@@H](C)C1` [Example 60-30, 6-chloro-1-(4-cyclopropyl-6-methyl-5-pyrimidinyl)-7-(2-fluorophenyl)-4-((2S)-2-methyl-4-(2-propenoyl)-1-piperazinyl)pyrido[2,3-d]pyrimidin-2(1H)-one], the “Coupled exchange IC50 (5 min)” value in test [1] was 0.218 | nda μM. In test [2] (Homo sapiens, MIA PaCa-2, 2 h), the IC50 was determined as 200 nM.
For `C=CC(=O)N1CCN(c2nc(=O)n(-c3c(C)cccc3C(C)C)c3nc(-c4c(O)cccc4Cl)c(F)cc23)[C@@H](C)C1` [Example 68-1, 7-(2-Chloro-6-hydroxyphenyl)-6-fluoro-1-(2-methyl-6-(2-propanyl)phenyl)-4-((2S)-2-methyl-4-(2-propenoyl)-1-piperazinyl)pyrido[2,3-d]pyrimidin-2(1H)-one], in that order: 0.111 | nda μM and 214 nM.
For `C=CC(=O)N1CCN(c2nc(=O)n(-c3ccccc3C(C)C)c3nc(-c4nc(N)ccc4Cl)c(Cl)cc23)[C@@H](C)C1` [Example 70-1, 7-(6-Amino-3-chloro-2-pyrindinyl)-6-chloro-4-((2S)-2-methyl-4-(2-propenoyl)-1-piperazinyl)-1-(2-(2-propanyl)phenyl)pyrido[2,3-d]pyrimidin-2(1H)-one] the same measures were 0.225 | nda μM and 225 nM.
`C=CC(=O)N1CCN(c2nc(=O)n(-c3ccccc3C(C)C)c3nc(-c4nc(N)cc5ccccc45)c(Cl)cc23)[C@@H](C)C1` [Example 70-2, 7-(3-amino-1-isoquinolinyl)-6-chloro-4-((2S)-2-methyl-4-(2-propenoyl)-1-piperazinyl)-1-(2-(2-propanyl)phenyl)pyrido[2,3-d]pyrimidin-2(1H)-one]: the “Coupled exchange IC50 (5 min)” value in test [1] is on record as 0.184 | nda μM. The IC50 in test [2] (Homo sapiens, MIA PaCa-2, 2 h) was found to be 213 nM.
In the case of `C=CC(=O)N1CCN(c2nc(=O)n(-c3c(C)cccc3C(C)C)c3nc(-c4nc(N)ccc4Cl)c(Cl)cc23)[C@@H](C)C1` [Example 70-3, 7-(6-amino-3-chloro-2-pyridinyl)-6-chloro-1-(2-methyl-6-(2-propanyl)phenyl)-4-((2S)-2-methyl-4-(2-propenoyl)-1-piperazinyl)pyrido[2,3-d]pyrimidin-2(1H)-one], the “Coupled exchange IC50 (5 min)” value in test [1] is 0.125 | nda μM. Besides, the IC50 in test [2] (Homo sapiens, MIA PaCa-2, 2 h) turned out to be 206 nM.
For `C=CC(=O)N1CCN(c2nc(=O)n(-c3c(C)cccc3C(C)C)c3nc(-c4nc(N)ccc4F)c(Cl)cc23)[C@@H](C)C1` [Example 70-4, 7-(6-amino-3-fluoro-2-pyridinyl)-6-chloro-1-(2-methyl-6-(2-propanyl)phenyl)-4-((2S)-2-methyl-4-(2-propenoyl)-1-piperazinyl)pyrido[2,3-d]pyrimidin-2(1H)-one] the same measures were 0.398 | nda μM and 280 nM.
For `C=CC(=O)N1CCN(c2nc(=O)n(-c3ccccc3C(C)C)c3nc(-c4ccccc4F)c(C)cc23)[C@@H](C)C1` [Example 74-1, 7-(2-Fluorophenyl)-6-methyl-4-((2S)-2-methyl-4-(2-propenoyl)-1-piperazinyl)-1-(2-(2-propanyl)phenyl)pyrido[2,3-d]pyrimidin-2(1H)-one], in that order: 0.951 | nda μM and 621 nM.
Take `C=CC(=O)N1CCN(c2nc(=O)n(-c3c(C)ccnc3C(C)C)c3nc(-c4ccccc4F)c(C)cc23)[C@@H](C)C1` [Example 74-2, 7-(2-fluorophenyl)-6-methyl-1-(4-methyl-2-(2-propanyl)-3-pyridinyl)-4-((2S)-2-methyl-4-(2-propenoyl)-1-piperazinyl)pyrido[2,3-d]pyrimidin-2(1H)-one]: the “Coupled exchange IC50 (5 min)” value in test [1] is 0.228 | nda μM. Besides, the IC50 in test [2] (Homo sapiens, MIA PaCa-2, 2 h) was determined as 300 nM.
For `C=CC(=O)N1CCN(c2nc(=O)n(-c3c(C)ccnc3C(C)C)c3nc(-c4c(O)cccc4F)c(C)cc23)[C@@H](C)C1` [Example 74-3, 7-(2-fluoro-6-hydroxyphenyl)-6-methyl-1-(4-methyl-2-(2-propanyl)-3-pyridinyl)-4-((2S)-2-methyl-4-(2-propenoyl)-1-piperazinyl)pyrido[2,3-d]pyrimidin-2(1H)-one] the same measures were 0.136 | nda μM and 347 nM.
For `C=CC(=O)N1CCN(c2nc(=O)n(-c3c(C)cc(CN(C)C)cc3C(C)C)c3nc(-c4ccccc4F)c(Cl)cc23)[C@@H](C)C1` [Example 80-1, 6-Chloro-1-(4-((dimethylamino)methyl)-2-methyl-6-(2-propanyl)phenyl)-7-(2-fluorophenyl)-4-((2S)-2-methyl-4-(2-propenoyl)-1-piperazinyl)pyrido[2,3-d]pyrimidin-2(1H)-one] the same measures were 0.08 | nda μM and 52 nM.
For `C=CC(=O)N1CCN(c2nc(CN(C)C)c(-c3ccccc3C(C)C)c3nc(-c4ccccc4F)c(Cl)cc23)[C@@H](C)C1` [Example 86-1, 1-((3S)-4-(3-Chloro-7-((dimethylamino)methyl)-2-(2-fluorophenyl)-8-(2-isopropylphenyl)-1,6-naphthyridin-5-yl)-3-methylpiperazin-1-yl)prop-2-en-1-one], in that order: 3.95 | nda μM and 4300 nM.
Take `C=CC(=O)N1C[C@H](C)N(c2nc(=O)n(-c3c(C(C)C)ncnc3C(C)C)c3nc(-c4ccccc4F)c(Cl)cc23)[C@@H](C)C1` [Example 87-1, 6-Chloro-4-((2S,6S)-2,6-dimethyl-4-(2-propenoyl)-1-piperazinyl)-1-(4,6-di(2-propanyl)-5-pyrimidinyl)-7-(2-fluorophenyl)pyrido[2,3-d]pyrimidin-2(1H)-one]: in test [1], the “Coupled exchange IC50 (5 min)” value is 0.034 | nda μM. In addition, the IC50 in test [2] (Homo sapiens, MIA PaCa-2, 2 h) was determined as 11 nM.
For `C=CC(=O)N1C[C@@H](C)N(c2nc(=O)n(-c3c(C(C)C)ncnc3C(C)C)c3nc(-c4ccccc4F)c(Cl)cc23)[C@@H](C)C1` [Example 87-2, 6-chloro-4-((2R,6S)-2,6-dimethyl-4-(2-propenoyl)-1-piperazinyl)-1-(4,6-di(2-propanyl)-5-pyrimidinyl)-7-(2-fluorophenyl)pyrido[2,3-d]pyrimidin-2(1H)-one], in that order: 0.035 | nda μM and 33 nM.
As for `C=CC(=O)N1CCN(c2nc(=O)n(-c3c(C(C)C)ncnc3C(C)C)c3nc(-c4ccc(C#N)cc4F)c(Cl)cc23)[C@@H](C)C1` [Example 87-4, 4-(6-chloro-1-(4,6-di(2-propanyl)-5-pyrimidinyl)-4-((2S)-2-methyl-4-(2-propenoyl)-1-piperazinyl)-2-oxo-1,2-dihydropyrido[2,3-d]pyrimidin-7-yl)-3-fluorobenzonitrile], the “Coupled exchange IC50 (5 min)” value in test [1] is on record as 0.254 | nda μM. For the same molecule, in test [2] (Homo sapiens, MIA PaCa-2, 2 h), the IC50 is 262 nM.
On to `C=CC(=O)N1CCN(c2nc(=O)n(-c3c(C(C)C)ncnc3C(C)C)c3nc(-c4ccc(F)cc4N)c(Cl)cc23)[C@@H](C)C1` [Example 87-5, 7-(2-amino-4-fluoropheny-1)-6-chloro-1-(4,6-di(2-propanyl)-5-pyrimidinyl)-4-((2S)-2-methyl-4-(2-propenoyl)-1-piperazinyl)pyrido[2,3-d]pyrimidin-2(1H)-one], for which the “Coupled exchange IC50 (5 min)” value in test [1] is 0.251 | nda μM. Moreover, the IC50 in test [2] (Homo sapiens, MIA PaCa-2, 2 h) is 181 nM.
For `C=CC(=O)N1CCN(c2nc(=O)n(-c3ccccc3C(C)C)c3nc(-c4c(F)cccc4C#N)c(Cl)cc23)[C@@H](C)C1` [Example 98, 2-(6-Chloro-4-((2S)-2-methyl-4-(2-propenoyl)-1-piperazinyl)-2-oxo-1-(2-(2-propanyl)phenyl)-1,2-dihydropyrido[2,3-d]pyrimidin-7-yl)-3-fluorobenzonitrile], the “Coupled exchange IC50 (5 min)” value in test [1] is 0.27 | nda μM. Moreover, the IC50 in test [2] (Homo sapiens, MIA PaCa-2, 2 h) came to 207 nM.
For the molecule `C=CC(=O)N1CCN(c2nc(=O)n(-c3ncncc3C(C)C)c3nc(-c4ccccc4F)c(Cl)cc23)[C@@H](C)C1` [Example 99, 6-Chloro-7-(2-fluorophenyl)-4-((2S)-2-methyl-4-(2-propenoyl)-1-piperazinyl)-1-(5-(2-propanyl)-4-pyrimidinyl)pyrido[2,3-d]pyrimidin-(1H)-one], the IC50 in test [1] was 237 nM; in test [2] it was 72 nM.
